Experimental data from US8586607B2, “Compounds for the treatment of metabolic diseases” (Syddansk Universitet, priority 2008, dated 2013).

Biological target: human GPR40 (Homo sapiens, UniProt O14842)
Assay: Calcium mobilization assay, agonistic activity on GPR40
Format: cell-based
Conditions: cells expressing human GPR40 (hGPR40-1321N1); for EC50: read-out: GPR40 agonistic activity (pEC50) (converted)
Protocol: Cell Culture and Transfection. 1321N1 cells stably transfected with the human GPR40 were kindly provided by Euroscreen (Gosselies, Belgium). hGPR40-1321N1 cells were grown in Dulbecco's modified Eagle's medium supplemented with 10% (v/v) heat-inactivated fetal calf serum, 1% sodium pyruvate, 100 U/ml penicillin, 100 μg/ml streptomycin, and 400 μg/ml G418. 1321N1, HEK293 cells were grown in Dulbecco's modified Eagle's medium supplemented with 10% (v/v) heat-inactivated fetal calf serum, 1% sodium pyruvate, 100 U/ml penicillin, and 100 μg/ml streptomycin. All cells were kept at 37° C. in a 5% CO2 atmosphere. […]
Calcium Mobilization Assays. Calcium measurements were performed using a NOVOstar® microplate reader with a built-in pipetor (BMG LabTech, Offenburg, Germany). Cells were seeded in 96-well tissue-culture plates at a density of 30,000 cells per well. […] For testing of agonists, 20 μl of a ten-fold concentrated test compound solution was injected sequentially into separate wells and fluorescence was measured at 520 nm (bandwidth 25 nm) for 50 intervals of 0.4 seconds each. […] Concentration-inhibition curves in the presence of the test compounds were obtained by preincubating the cells with the compounds for 30 min at 37° C. prior to injection of agonist.

Chain of human GPR40 (O14842 whole entry): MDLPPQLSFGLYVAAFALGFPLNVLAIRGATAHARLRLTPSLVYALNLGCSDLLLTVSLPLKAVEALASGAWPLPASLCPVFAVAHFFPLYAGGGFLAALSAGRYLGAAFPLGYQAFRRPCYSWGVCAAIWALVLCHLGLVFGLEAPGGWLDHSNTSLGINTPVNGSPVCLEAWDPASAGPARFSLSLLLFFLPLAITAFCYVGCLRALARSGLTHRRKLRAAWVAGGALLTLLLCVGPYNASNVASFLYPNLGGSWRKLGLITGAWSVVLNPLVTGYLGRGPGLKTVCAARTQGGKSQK

| SMILES | EC50 [nM] | GPR40 agonistic activity (pEC50) |
| --- | --- | --- |
| O=C(O)[C@@H]1C[C@H]1c1ccc(C#Cc2ccccc2)cc1 (relative stereo) [Example A29, trans-2-(4-(Phenylethynyl)phenyl)cyclopropanecarboxylic acid] | 145 | – |
| O=C(O)COc1ccc(C#Cc2ccccc2)cc1 [Example A1, 2-(4-(Phenylethynyl)phenoxy)acetic acid] | 1320 | – |
| Cc1ccccc1C#Cc1ccc(OCC(=O)O)cc1 [Example A2, 2-(4-(o-Tolylethynyl)phenoxy)acetic acid] | 3630 | – |
| Cc1ccc(C#Cc2ccc(OCC(=O)O)cc2)cc1 [Example A3, 2-(4-(p-Tolylethynyl)phenoxy)acetic acid] | 29500 | – |
| Cc1cccc(C#Cc2ccc(OCC(=O)O)cc2)c1 [Example A4, 2-(4-(m-Tolylethynyl)phenoxy)acetic acid] | 562 | – |
| O=C(O)CCc1ccc(C#Cc2cccc3ccccc23)cc1 [Example A6, 3-(4-(1-Naphthylethynyl)phenyl)propanoic acid] | 85.1 | – |
| Cc1cc(C)cc(C#Cc2ccc(CCC(=O)O)cc2)c1 [Example A15, 3-(4-((3,5-Dimethylphenyl)ethynyl)phenyl)propanoic acid] | – | 7.13 |
| Cc1cccc(C#Cc2ccc(CCC(=O)O)cc2)c1C [Example A16, 3-(4-((2,3-Dimethylphenyl)ethynyl)phenyl)propanoic acid] | – | 7.06 |
| O=C(O)CCc1ccc(C#Cc2cccc(-c3cn(Cc4ccccc4)nn3)c2)cc1 [Example A19, 3-(4-((3-(1-Benzyl-1H-1,2,3-triazol-4-yl)phenyl)ethynyl)phenyl)propanoic acid] | 1910 | – |
| O=C(O)COc1ccc(C#Cc2cccc(O)c2)cc1 [Example A24, 2-(4-((3-Hydroxyphenyl)ethynyl)phenoxy)ethanoic acid] | 4790 | – |
| O=C(O)COc1ccc(C#Cc2ccc(O)cc2)cc1 [Example A25, 2-(4-((4-Hydroxyphenyl)ethynyl)phenoxy)ethanoic acid] | 132000 | – |
| O=C(O)COc1ccc(C#Cc2ccc(CO)cc2)cc1 [Example A26, 2-(4-((4-(Hydroxymethyl)phenyl)ethynyl)phenoxy)ethanoic acid] | 112000 | – |
| CCc1ccccc1C#Cc1ccc(CCC(=O)O)cc1 [Example A30, 3-(4-((2-Ethylphenyl)ethynyl)phenyl)propanoic acid] | – | 7.05 |
| O=C(O)CCc1ccc(C#Cc2cc(Cl)nc(Cl)c2)cc1 [Example A33, 3-(4-((2,6-Dichloropyridin-4-yl)ethynyl)phenyl)propanoic acid] | 56.2 | – |
| O=C(O)CCc1ccc(C#Cc2ncccc2[N+](=O)[O-])cc1 [Example A34, 3-(4-((3-Nitropyridin-2-yl)ethynyl)phenyl)propanoic acid] | – | 4.96 |
| O=C(O)C1CC1c1ccc(C#Cc2cc(Cl)nc(Cl)c2)cc1 (stereo not drawn) [Example A35, 2-(4-((2,6-Dichloropyridin-4-yl)ethynyl)phenyl)cyclopropanecarboxylic acid] | – | 7.37 |
| Cc1ccccc1C#Cc1ccc(C2CC2C(=O)O)cc1 (stereo not drawn) [Example A36, 2-(4-(o-Tolylethynyl)phenyl)cyclopropanecarboxylic acid] | 138 | – |
| Cc1cccc(C#Cc2ccc(C3CC3C(=O)O)cc2)c1 (stereo not drawn) [Example A37, 2-(4-(m-Tolylethynyl)phenyl)cyclopropanecarboxylic acid] | 93.3 | – |
| Cc1ccc(C#Cc2ccc(C3CC3C(=O)O)cc2)cc1 (stereo not drawn) [Example A38, 2-(4-(p-Tolylethynyl)phenyl)cyclopropanecarboxylic acid] | 309 | – |
| O=C(O)CCc1ccc(C#Cc2ccccc2-c2ccccc2)cc1 [Example A40, 3-(4-(Biphenyl-2-ylethynyl)phenyl)propanoic acid] | – | 6.00 |
| Cc1cccc(C)c1C#Cc1ccc(CCC(=O)O)cc1 [Example A50, 3-(4-((2,6-Dimethylphenyl)etnynyl)phenyl)propanoic acid] | – | 6.38 |
| CC(=O)c1ccccc1C#Cc1ccc(CCC(=O)O)cc1 [Example A53, 3-(4-((2-Acetylphenyl)ethynyl)phenyl)propanoic acid] | – | 6.73 |
| O=C(O)CCc1ccc(C#Cc2ccccc2CO)cc1 [Example A59] | – | 6.24 |
| Cc1ccc(S(=O)(=O)OCCc2ccccc2C#Cc2ccc(CCC(=O)O)cc2)cc1 [Example A61, 3-(4-((2-(2-(Tosyloxy)ethyl)phenyl)ethynyl)phenyl)propanoic acid] | 316 | – |

Other lines, results leading:

| EC50 [nM] | GPR40 agonistic activity (pEC50) | SMILES |
| --- | --- | --- |
| – | 7.02 | O=C(O)CCc1ccc(C#Cc2ccccc2)cc1 [Example A5, 3-(4-(Phenylethynyl)phenyl)propanoic acid] |
| – | 7.36 | Cc1cccc(C#Cc2ccc(CCC(=O)O)cc2)c1 [Example A7, 3-(4-(m-Tolylethynyl)phenyl)propanoic acid] |
| – | 6.05 | O=C(O)CCc1ccc(C#Cc2cccc(CO)c2)cc1 [Example A8, 3-(4-((3-(Hydroxymethyl)phenyl)ethynyl)phenyl)propanoic acid] |
| – | 7.49 | Cc1ccccc1C#Cc1ccc(CCC(=O)O)cc1 [Example A9, 3-(4-(o-Tolylethynyl)phenyl)propanoic acid] |
| – | 7.04 | N#Cc1cccc(C#Cc2ccc(CCC(=O)O)cc2)c1 [Example A11, 3-(4-((3-Cyanophenyl)ethynyl)phenyl)propanoic acid] |
| 57.5 | – | O=C(O)CCc1ccc(C#Cc2cccc([N+](=O)[O-])c2)cc1 [Example A12, 3-(4-((3-Nitrophenyl)ethynyl)phenyl)propanoic acid] |
| – | 6.45 | O=Cc1cccc(C#Cc2ccc(CCC(=O)O)cc2)c1 [Example A13, 3-(4-((3-Formylphenyl)ethynyl)phenyl)propanoic acid] |
| – | 7.05 | O=C(O)CCc1ccc(C#Cc2cccc(C(F)(F)F)c2)cc1 [Example A14, 3-(4-((3-(Trifluoromethyl)phenyl)ethynyl)phenyl)propanoic acid] |
| – | 5.96 | Nc1cccc(C#Cc2ccc(CCC(=O)O)cc2)c1 [Example A17, 3-(4-((3-Aminophenyl)ethynyl)phenyl)propanoic acid] |
| – | 6.81 | C#Cc1cccc(C#Cc2ccc(CCC(=O)O)cc2)c1 [Example A18, 3-(4-((3-Ethynylphenyl)ethynyl)phenyl)propanoic acid] |
| 8130 | – | O=C(O)CCc1ccc(C#Cc2ccccn2)cc1 [Example A20, 3-(4-(Pyridin-2-ylethynyl)phenyl)propanoic acid] |
| 2750 | – | O=C(O)CCc1ccc(C#Cc2cccnc2)cc1 [Example A21, 3-(4-(Pyridin-3-ylethynyl)phenyl)propanoic acid] |
| 115 | – | O=C(O)CCc1ccc(C#Cc2ccnc(Cl)c2)cc1 [Example A22, 3-(4-((2-Chloropyridin-4-yl)ethynyl)phenyl)propanoic acid] |
| 3800 | – | Cc1cccc(C#Cc2ccc(CCC(=O)O)cc2)n1 [Example A23, 3-(4-((6-Methylpyridin-2-yl)ethynyl)phenyl)propanoic acid] |
| – | 5.95 | Cc1cc(C#Cc2ccc(CCC(=O)O)cc2)ccn1 [Example A32, 3-(4-((2-Methylpyridin-4-yl)ethynyl)phenyl)propanoic acid] |
| – | 6.66 | COc1ccccc1C#Cc1ccc(CCC(=O)O)cc1 [Example A51, 3-(4-((2-Methoxyphenyl)ethynyl)phenyl) acid] |
| – | 6.35 | O=C(O)CCc1ccc(C#Cc2cccc(O)c2)cc1 [Example A52, 3-(4-((3-Hydroxyphenyl)ethynyl)phenyl)propanoic acid] |
| 525 | – | O=C(O)CCc1ccc(C#Cc2cccc(OCc3ccccc3)c2)cc1 [Example A55, 3-(4-((3-(Benzyloxy)phenyl)ethynyl)phenyl)propanoic acid] |
| 77.6 | – | C#CCOc1cccc(C#Cc2ccc(CCC(=O)O)cc2)c1 [Example A56, 3-(4-((3-(Prop-2-ynyloxy)phenyl)ethynyl)phenyl)propanoic acid] |
| 145 | – | C=CCOc1cccc(C#Cc2ccc(CCC(=O)O)cc2)c1 [Example A57, 3-(4-((3-(Allyloxy)phenyl)ethynyl)phenyl)propanoic acid] |
| – | 4.79 | O=C(O)CCc1ccc(C#Cc2ccccc2O)cc1 [Example A58, 3-(4-((2-Hydroxyphenyl)ethynyl)phenyl)propanoic acid] |
